Laboratory results published in PubChem BioAssay (NCI).
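Test compounds were applied to cells in 96-well plates for 48 hours at 5 doses. GI50 is the concentration that inhibits growth by half. Definition used: TGI = concentration required for complete inhibition of growth.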

Tests used:
Test in all cases: growth of human tumour cells (NCI), 48 h
TK-10 renal = test system: TK-10 renal
OVCAR-8 ovarian = test system: OVCAR-8 ovarian
HCC-2998 colon = test system: HCC-2998 colon
CCRF-CEM leukemia = test system: CCRF-CEM leukemia
786-0 renal = test system: 786-0 renal
LOX IMVI melanoma = test system: LOX IMVI melanoma
SF-295 CNS = test system: SF-295 CNS
RPMI-8226 leukemia = test system: RPMI-8226 leukemia
SW-620 colon = test system: SW-620 colon
HOP-62 NSCLC = test system: HOP-62 NSCLC

Compound | TGI (TK-10 renal) | TGI (OVCAR-8 ovarian) | TGI (HCC-2998 colon) | TGI (CCRF-CEM leukemia) | TGI (786-0 renal) | TGI (LOX IMVI melanoma) | TGI (SF-295 CNS) | TGI (RPMI-8226 leukemia) | TGI (SW-620 colon) | TGI (HOP-62 NSCLC) | GI50 (TK-10 renal) | GI50 (OVCAR-8 ovarian) | GI50 (HCC-2998 colon) | GI50 (CCRF-CEM leukemia) | GI50 (786-0 renal) | GI50 (HOP-62 NSCLC) | GI50 (SF-295 CNS) | GI50 (RPMI-8226 leukemia) | GI50 (SW-620 colon) | GI50 (LOX IMVI melanoma)
COC(=O)/C(C#N)=C1\N=NNN1CCCN1CCOCC1 | > 100 µM | > 100 µM | > 100 µM | > 100 µM | > 100 µM | > 100 µM | > 100 µM | > 100 µM | > 100 µM | – | – | – | – | – | – | – | – | – | – | –
CCOC(=O)c1cnc2[nH]c(=O)c3ccccc3n2c1=O | > 100 µM | > 100 µM | – | > 100 µM | > 100 µM | > 100 µM | > 100 µM | > 100 µM | > 100 µM | > 100 µM | – | – | – | – | – | – | – | – | – | –
CCOC(=O)c1[nH]c2c(c1C)-c1[nH]c(=O)c(S(=O)(=O)c3ccccc3)cc1SC2 | > 100 µM | > 100 µM | > 100 µM | > 100 µM | > 100 µM | – | > 100 µM | > 100 µM | > 100 µM | > 100 µM | 42.6 µM | 37.7 µM | > 100 µM | 57.8 µM | 46.3 µM | 44.3 µM | 28.1 µM | 44 µM | 57.9 µM | –
CC1=NN(C(=O)CC(=O)Nc2cccc(Cl)c2)C(=O)C1N=Nc1ccc(S(N)(=O)=O)cc1 (stereo not drawn) | > 100 µM | > 100 µM | > 100 µM | – | > 100 µM | > 100 µM | > 100 µM | > 100 µM | > 100 µM | > 100 µM | – | – | – | – | – | – | – | – | – | –
CC(CS(=O)(=O)Cc1ccccc1)C(N)=O (stereo not drawn) | > 100 µM | > 100 µM | – | – | > 100 µM | > 100 µM | > 100 µM | > 100 µM | > 100 µM | > 100 µM | – | – | – | – | – | – | – | – | – | –
Cc1nnc2n1N=C(CC(=O)c1ccc(O)cc1O)CN2N | > 100 µM | – | > 100 µM | > 100 µM | > 100 µM | > 100 µM | > 100 µM | – | 31 µM | > 100 µM | – | – | – | – | – | – | – | – | – | –
CCOC(=O)CCC1(C(=O)OC)CCCC1=O (stereo not drawn) | > 100 µM | > 100 µM | > 100 µM | – | > 100 µM | > 100 µM | > 100 µM | > 100 µM | > 100 µM | > 100 µM | – | – | – | – | – | – | – | – | – | –
Cc1nn(-c2ccccc2)c2c1C1C(=C(c3ccc(Cl)cc3)N2)C(=O)Nc2ccccc21 (stereo not drawn) | – | 67 µM | 10.6 µM | 8.67 µM | 31 µM | 12 µM | 7.77 µM | 4.77 µM | > 100 µM | > 100 µM | – | 3.26 µM | 3.43 µM | 2.66 µM | 3.97 µM | 9.88 µM | 2.49 µM | 2.17 µM | 4.16 µM | 3.54 µM
COc1ccc2cccc(C(=N)c3ccc(C)c4c3CCC4)c2c1 | 24.2 µM | 24 µM | 23.1 µM | 26.6 µM | 21.9 µM | 25.5 µM | 17.7 µM | – | 18.7 µM | 20 µM | – | – | – | – | – | – | – | – | – | –
O=C1c2cccnc2C(=O)c2c1c(C(=O)OCCCN1CCOCC1)c1ccccn21 | 5.57 µM | 1.92 µM | 3.15 µM | – | 0.0403 µM | 0.0152 µM | 0.0698 µM | 1.13 µM | 1.75 µM | – | 0.0292 µM | < 0.01 µM | < 0.01 µM | 0.0493 µM | 0.0124 µM | – | 0.0167 µM | 0.0252 µM | < 0.01 µM | < 0.01 µM
COC(=O)/C(=N\NC(=O)c1ccccc1O)C(C#N)c1ccc(Cl)cc1 (stereo not drawn) | > 100 µM | > 100 µM | 88.7 µM | > 100 µM | > 100 µM | – | > 100 µM | – | > 100 µM | 95.8 µM | – | – | – | – | – | – | – | – | – | –
CC(=O)NC1C(OCc2ccccc2)OC(COC(=O)CCCCCCCCCCNC(=O)c2cccc3c(=O)c4ccccc4[nH]c23)C(O)C1OC(C)C(=O)NC(C)C(=O)NC(CCC(N)=O)C(N)=O (stereo not drawn) | > 100 µM | > 100 µM | – | – | > 100 µM | > 100 µM | > 100 µM | > 100 µM | > 100 µM | > 100 µM | – | – | – | – | – | – | – | – | – | –
O=C(Cc1nc2ccc(C(=O)c3ccccc3)cc2[nH]c1=O)C(=O)Nc1ccccc1[N+](=O)[O-] | > 100 µM | > 100 µM | > 100 µM | > 100 µM | > 100 µM | > 100 µM | > 100 µM | > 100 µM | > 100 µM | – | – | – | – | – | – | – | – | – | – | –
O=C1C=C(Nc2cccc(Br)c2)c2ccccc2C1=O | – | 93.4 µM | > 100 µM | 82.9 µM | 28.2 µM | 21.5 µM | 15.1 µM | > 100 µM | > 100 µM | 26.1 µM | – | 18.6 µM | 12.1 µM | 21.4 µM | 7.25 µM | 2.29 µM | 3.21 µM | 22.2 µM | 0.482 µM | 4.35 µM
O=C(OCc1ccccc1CN1CCOCC1)c1ccc(Br)cc1 | > 100 µM | > 100 µM | > 100 µM | – | > 100 µM | > 100 µM | – | 49.7 µM | > 100 µM | > 100 µM | – | – | – | – | – | – | – | – | – | –
CCCCCCCCCCCCCCCC[N+]1(CC)CCCC1 | 1.21 µM | – | – | 1.84 µM | 2.61 µM | 0.454 µM | – | – | 1.65 µM | 2.52 µM | 0.266 µM | – | – | 0.379 µM | 1.18 µM | 1.03 µM | – | – | 0.41 µM | 0.162 µM
Cc1cc(N(CCC#N)S(=O)(=O)c2ccccc2)ccc1C=O | – | > 100 µM | > 100 µM | > 100 µM | > 100 µM | > 100 µM | > 100 µM | > 100 µM | > 100 µM | > 100 µM | – | – | – | – | – | – | – | – | – | –
O=C1[C@H]2C(c3ccccc3)=NN(C(=O)c3ccccc3)[C@H]2C(=O)N1c1ccccc1 | > 100 µM | > 100 µM | – | > 100 µM | > 100 µM | > 100 µM | > 100 µM | > 100 µM | > 100 µM | > 100 µM | – | – | – | – | – | – | – | – | – | –
CN1CCCC1c1cccnc1.O=C(O)c1ccccc1O.O=C([O-])c1ccccc1[OH2+].O=C([O-])c1ccccc1[OH2+].O=C([O-])c1ccccc1[OH2+].[Mn+2] (stereo not drawn) | > 100 µM | > 100 µM | – | > 100 µM | > 100 µM | > 100 µM | > 100 µM | > 100 µM | > 100 µM | > 100 µM | > 100 µM | > 100 µM | – | 23.3 µM | > 100 µM | > 100 µM | > 100 µM | 92.7 µM | 42.4 µM | > 100 µM
